Data reported in patent publication US20260295059A1, “BROAD-SPECTRUM ANTIBIOTIC HYBRIDS FOR THE TREATMENT OF MULTI-DRUG RESISTANT INFECTIONS” (priority 2023, published 2026).
Where a SMILES comes first, the peptide text is derived from it. Bridges are numbered along the chain shown (N, C = ends). [ ]: non-standard residue; d: D form. The star is where a group is joined. ξ: configuration not given here. Decanoyl(3R-OH) = CCCCCCC[C@@H](O)CC(=O)*; Decanoyl = CCCCCCCCCC(=O)*; dDab = NCC[C@@H](N)C(=O)O; Dab = NCC[C@H](N)C(=O)O; ξDab = NCCC(N)C(=O)O

Columns and labels:
[1] = test system: P. aeruginosa; test: Activity against challenge panel of 207 P. aeruginosa isolates (MIC50/MIC90); assay type: cell-based; conditions: Pseudomonas aeruginosa
Experimental: (§1) Dry Powder Formulation and in vivo Efficacy of UOM-001 and UOM-005 in a Lung Infection Model. […] The activity of DPI UOM-001 and comparator antibiotics was assessed against a challenge panel consisting of 207 P. aeruginosa isolates collected from different parts of the world; 105 isolates were enriched for resistance against β-lactam/β-lactamase inhibitor combinations (Table 6). […] The teixobactin-lipopeptide hybrids have a labile linker between the two antibiotic components that allows for sustained release of each component at the infection site simultaneously, thereby targeting their synergistic activity. Whereas the individual components when administered together likely display different disposition, uptake, and elimination characteristics, and therefore become diffusely distributed from each other, resulting in the loss of antibacterial synergy. […] In contrast, following intravenous administration of an identical dose, the ELF concentration of UOM-001 was below the limit of quantification (0.1 μg/mL). […] Pulmonary surfactant is a primary component of the ELF which can bind antibiotics that can impede the antibacterial activity of the drug. The binding of UOM-001 and teixobactin (5 mg/L for 4 h 37° C.) to lung surfactant or its individual components was determined by ultracentrifugation and LC-MS (FIG. 5C). The low binding of UOM-001 to lung surfactant is consistent with its good efficacy in the lung infection model. The effect of surfactant on the in vitro antibacterial activity of UOM-001 was assessed with the use of three polymyxin-resistant P. aeruginosa cystic fibrosis isolates. Beractant (Survanta™; Abbott Laboratories) served as the pulmonary surfactant. Beractant is a bovine-derived surfactant containing 25 mg/mL phospholipids. Although its composition differs slightly from that of human surfactant, it is functionally equivalent. For surfactant testing, the bacterial growth medium was supplemented with 10% beractant (=2.5 mg/mL). Since the surfactant produces turbidity, the minimum bactericidal concentration (MBC) was used to compare potency of UOM-001 in the absence or presence of surfactant. The MBCs of UOM-001 (0.125-0.5 mg/L) were not affected even when tested with the highest concentrations of surfactant (2.5 mg/mL, 10%).

[2] = test system: P. aeruginosa FADDI-PA021m; test: MIC against polymyxin-resistant cystic fibrosis isolate FADDI-PA021m; assay type: cell-based
[3] = test system: P. aeruginosa FADDI-PA021m; test: Static time-kill study, FADDI-PA021m; assay type: cell-based; conditions: native teixobactin or polymyxin B (MICs >128 mg/L)
[4] = test system: PDR P. aeruginosa; test: Activity against challenge panel of 207 P. aeruginosa isolates (MIC50/MIC90); assay type: cell-based; conditions: P. aeruginosa (n = 207)
Experimental: as §1

[5] = test system: Gram-negative bacteria; test: Antibacterial activity against Gram-negative bacteria; assay type: cell-based
Description: (§2) Polymyxin lipopeptides can act as powerful potentiators for FDA-approved non-antibiotic drugs, by permeabilizing the Gram-negative outer membrane, allowing the non-antibiotic drug to enter the bacterial cell and reach its intracellular targets (Hussein et al. (2018) Comput. Struct. Biotechnol. J. 16:587-599; Hussein et al. (2017) Microbiol. Drug Resist. 23:640-650; Jasim et al. (2017) J. Biomed. Nanotechnol. 13:447-457; Schneider et al. (2016) ACS Infect. Dis. 2:478-488; Tran et al. (2018) Front. Pharmacol. 9:359; Tran et al. (2018) Front. Microbiol. 9:721; Schneider et al. (2017) Essays Biochem. 61:115-125; Diep et al. (2017) Antimicrob. Agents Chemother. 61; Rao et al. (2016) J. Antimicrob. Chemother. 71:3148-3156; Sharma et al. (2017) Int. J. Antimicrob. Agents 49:224-232).

[6] = test system: Gram-positive bacteria; test: Antibacterial activity against Gram-positive bacteria; assay type: cell-based
Description: as §2

[7] = test system: P. aeruginosa; test: MIC determination, P. aeruginosa strains; assay type: cell-based; conditions: 11 PDR P. aeruginosa strains
Description: (§3) Agents Chemother. 61; Rao et al. (2016) J. Antimicrob. Chemother. 71:3148-3156; Sharma et al. (2017) Int. J. Antimicrob. Agents 49:224-232). Subsequently, this SAR-based design strategy has been expanded to include teixobactins conjugated via labile and non-labile linkers to the polymyxin-lipopeptides (e.g., polymyxin B nonapeptide, FADDI-002 and octapeptin C4) (Velkov et al. (2018) Cell Chem. Biol. 25:380-391 e385; Velkov et al. (2013) Future Microbiol. 8:711-724; Velkov et al. (2014) ACS Chem. Biol. 9:1172-1177; Velkov et al. (2010) J. Med. Chem 53:1898-1916), which generated potent teixobactin lipopeptide hybrids active against teixobactin-resistant PDR Gram-negative ‘superbugs’ (Table 4).

[8] = test system: A. baumannii; test: MIC determination, A. baumannii strains; assay type: cell-based; conditions: 4 PDR A. baumannii strains
Description: as §3

[9] = test system: S. aureus; test: MIC determination, S. aureus strains; assay type: cell-based; conditions: 3 PDR S. aureus strains
Description: as §3

[10] = test system: pulmonary infections; conditions: 230 critically-ill patients, cited from earlier work

Molecule | MIC50 [1] [µg/mL] | MIC90 [1] [µg/mL] | MIC50 [4] [µg/mL] | MIC90 [4] [µg/mL] | further results
C[C@H]1COc2c(N3CCN(C)CC3)c(F)cc3c(=O)c(C(=O)O)cn1c23 [LEVO, levofloxacin] | 8 | > 16 | – | – | –
polymyxin B | – | – | – | – | MIC [2]: > 128 µg/mL; killing [3]: no killing was observed
NCC[C@H](O)C(=O)N[C@@H]1C[C@H](N)[C@@H](O[C@H]2O[C@H](CN)[C@@H](O)[C@H](O)[C@H]2O)[C@H](O)[C@H]1O[C@H]1O[C@H](CO)[C@@H](O)[C@H](N)[C@H]1O [AMK, amikacin] | 16 | > 32 | – | – | –
C[C@@H](O)[C@H]1C(=O)N2C(C(=O)O)=C(S[C@@H]3CN[C@H](C(=O)N(C)C)C3)[C@H](C)[C@H]12 [MER, meropenem] | 16 | > 32 | – | – | –
gentamicin [GNT] | – | – | 8 | >16 | –
CCCCCCC[C@@H](O)CC(=O)N[C@H](CCN)C(=O)NC1CCNC(=O)[C@H](CC(C)C)NC(=O)[C@H](CCN)NC(=O)[C@H](CCN)NC(=O)[C@H](CC(C)C)NC(=O)[C@@H](Cc2ccccc2)NC(=O)[C@H](CCN)NC1=O (stereo partly drawn) [octapeptin C4] ({Decanoyl(3R-OH)}-[dDab][ξDab][Dab][dF]L[Dab][Dab]L; lactam 2-C) | – | – | – | – | activity against Gram-negative bacteria [5]: potent activity; activity against Gram-positive bacteria [6]: potent activity
colistin | – | – | 1 | 1 | colistin MIC (PDR strains) [7]: 8 to 128 µg/mL; colistin MIC (PDR strains) [8]: 8 to 128 µg/mL; colistin MIC (PDR strains) [9]: >128 µg/mL; efficacy of parenteral colistin for pulmonary infections [10]: disappointing; exposure of colistin at the infection site ([10]; parenteral, pulmonary infections): very limited exposure at the infection site
CCCCCCCCCC(=O)N[C@H](CCN)C(=O)N[C@H]1CCNC(=O)[C@H](CC(C)C)NC(=O)[C@H](CCN)NC(=O)[C@H](CCN)NC(=O)[C@H](CC(C)C)NC(=O)[C@@H](Cc2ccccc2)NC(=O)[C@H](CCN)NC1=O [FADDI-115] (Decanoyl-[dDab][Dab][Dab][dF]L[Dab][Dab]L; lactam 2-C) | – | – | – | – | activity against Gram-negative bacteria [5]: potent activity; activity against Gram-positive bacteria [6]: potent activity
ceftazidime-avibactam [CAZ-AVI] | – | – | 2 | 8 | –
piperacillin-tazobactam [PIP-TAZ] | – | – | 64 | >128 | –
